In ChEMBL document CHEMBL2163268, “Structure-based design of a novel series of potent, selective inhibitors of the class I phosphatidylinositol 3-kinases” (J Med Chem, 2012):
pIC50, pKi: −log10 of the molar value.

How the values were obtained:
in vitro = settings: rat, liver microsomes
[1] = biological target: Phosphatidylinositol 4,5-bisphosphate 3-kinase catalytic subunit gamma isoform (Homo sapiens, UniProt P48736); assay: biochemical
[2] = biological target: Phosphatidylinositol 4,5-bisphosphate 3-kinase catalytic subunit beta isoform (Homo sapiens, UniProt P42338); assay: biochemical
[3] = biological target: T1, Phosphatidylinositol 4,5-bisphosphate 3-kinase catalytic subunit delta isoform (Homo sapiens, UniProt O00329); assay: biochemical
T1 sequence (O00329 whole entry): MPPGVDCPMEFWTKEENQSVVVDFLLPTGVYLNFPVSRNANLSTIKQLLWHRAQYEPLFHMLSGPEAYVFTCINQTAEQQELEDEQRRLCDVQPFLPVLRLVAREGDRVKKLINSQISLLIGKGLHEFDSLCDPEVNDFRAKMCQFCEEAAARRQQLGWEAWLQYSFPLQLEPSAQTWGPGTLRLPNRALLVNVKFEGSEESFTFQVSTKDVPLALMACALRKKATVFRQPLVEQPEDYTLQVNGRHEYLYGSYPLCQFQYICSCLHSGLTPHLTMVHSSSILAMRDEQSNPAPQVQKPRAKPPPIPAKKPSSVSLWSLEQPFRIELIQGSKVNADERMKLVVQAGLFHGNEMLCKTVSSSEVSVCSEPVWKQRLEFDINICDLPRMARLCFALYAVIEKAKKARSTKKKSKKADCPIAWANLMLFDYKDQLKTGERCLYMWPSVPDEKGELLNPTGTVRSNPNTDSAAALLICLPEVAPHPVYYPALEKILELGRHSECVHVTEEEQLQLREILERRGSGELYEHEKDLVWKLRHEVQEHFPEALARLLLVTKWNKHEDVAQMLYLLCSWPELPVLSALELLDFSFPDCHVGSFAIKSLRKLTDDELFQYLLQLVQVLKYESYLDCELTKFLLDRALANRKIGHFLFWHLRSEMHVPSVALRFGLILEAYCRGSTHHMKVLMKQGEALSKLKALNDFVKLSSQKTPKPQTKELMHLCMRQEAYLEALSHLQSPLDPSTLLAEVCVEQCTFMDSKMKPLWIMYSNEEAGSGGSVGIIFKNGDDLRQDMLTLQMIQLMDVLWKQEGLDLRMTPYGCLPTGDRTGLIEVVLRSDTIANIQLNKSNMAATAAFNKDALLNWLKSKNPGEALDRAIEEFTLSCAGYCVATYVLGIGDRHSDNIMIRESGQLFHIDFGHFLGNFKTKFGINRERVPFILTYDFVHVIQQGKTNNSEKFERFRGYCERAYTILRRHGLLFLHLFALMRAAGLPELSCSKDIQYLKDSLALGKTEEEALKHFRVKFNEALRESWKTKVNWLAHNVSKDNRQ

[4] = biological target: Serine/threonine-protein kinase mTOR (Homo sapiens, UniProt P42345)
[5] = biological target: Phosphatidylinositol 4,5-bisphosphate 3-kinase catalytic subunit alpha isoform (Homo sapiens, UniProt P42336); assay: biochemical
[6] = biological target: Serine/threonine-protein kinase B-raf (Homo sapiens, UniProt P15056, V600E)
Serine/threonine-protein kinase B-raf, sequence (P15056 2-766 V600E limits assumed): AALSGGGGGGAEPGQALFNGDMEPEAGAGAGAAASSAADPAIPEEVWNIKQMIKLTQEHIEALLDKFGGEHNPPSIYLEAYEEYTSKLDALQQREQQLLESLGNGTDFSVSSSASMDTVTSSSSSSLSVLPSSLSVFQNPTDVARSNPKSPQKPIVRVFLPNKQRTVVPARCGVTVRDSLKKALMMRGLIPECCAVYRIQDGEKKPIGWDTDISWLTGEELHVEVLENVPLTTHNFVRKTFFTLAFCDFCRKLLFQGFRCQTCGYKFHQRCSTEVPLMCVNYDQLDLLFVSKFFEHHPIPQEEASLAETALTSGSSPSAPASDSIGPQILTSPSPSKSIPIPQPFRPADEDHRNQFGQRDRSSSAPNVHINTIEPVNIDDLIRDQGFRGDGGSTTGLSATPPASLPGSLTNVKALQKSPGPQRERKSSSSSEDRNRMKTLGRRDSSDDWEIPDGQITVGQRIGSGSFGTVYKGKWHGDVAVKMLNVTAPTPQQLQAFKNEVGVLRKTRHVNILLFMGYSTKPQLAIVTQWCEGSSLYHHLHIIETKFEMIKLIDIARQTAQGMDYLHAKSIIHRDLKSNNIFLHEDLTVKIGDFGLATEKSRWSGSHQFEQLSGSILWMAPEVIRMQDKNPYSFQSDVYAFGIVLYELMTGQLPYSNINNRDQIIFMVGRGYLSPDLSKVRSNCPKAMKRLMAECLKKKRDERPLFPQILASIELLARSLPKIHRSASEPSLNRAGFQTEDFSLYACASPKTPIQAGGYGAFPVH

Phosphatidylinositol 4,5-bisphosphate 3-kinase catalytic subunit alpha isoform, sequence (P42336 whole entry, canonical isoform): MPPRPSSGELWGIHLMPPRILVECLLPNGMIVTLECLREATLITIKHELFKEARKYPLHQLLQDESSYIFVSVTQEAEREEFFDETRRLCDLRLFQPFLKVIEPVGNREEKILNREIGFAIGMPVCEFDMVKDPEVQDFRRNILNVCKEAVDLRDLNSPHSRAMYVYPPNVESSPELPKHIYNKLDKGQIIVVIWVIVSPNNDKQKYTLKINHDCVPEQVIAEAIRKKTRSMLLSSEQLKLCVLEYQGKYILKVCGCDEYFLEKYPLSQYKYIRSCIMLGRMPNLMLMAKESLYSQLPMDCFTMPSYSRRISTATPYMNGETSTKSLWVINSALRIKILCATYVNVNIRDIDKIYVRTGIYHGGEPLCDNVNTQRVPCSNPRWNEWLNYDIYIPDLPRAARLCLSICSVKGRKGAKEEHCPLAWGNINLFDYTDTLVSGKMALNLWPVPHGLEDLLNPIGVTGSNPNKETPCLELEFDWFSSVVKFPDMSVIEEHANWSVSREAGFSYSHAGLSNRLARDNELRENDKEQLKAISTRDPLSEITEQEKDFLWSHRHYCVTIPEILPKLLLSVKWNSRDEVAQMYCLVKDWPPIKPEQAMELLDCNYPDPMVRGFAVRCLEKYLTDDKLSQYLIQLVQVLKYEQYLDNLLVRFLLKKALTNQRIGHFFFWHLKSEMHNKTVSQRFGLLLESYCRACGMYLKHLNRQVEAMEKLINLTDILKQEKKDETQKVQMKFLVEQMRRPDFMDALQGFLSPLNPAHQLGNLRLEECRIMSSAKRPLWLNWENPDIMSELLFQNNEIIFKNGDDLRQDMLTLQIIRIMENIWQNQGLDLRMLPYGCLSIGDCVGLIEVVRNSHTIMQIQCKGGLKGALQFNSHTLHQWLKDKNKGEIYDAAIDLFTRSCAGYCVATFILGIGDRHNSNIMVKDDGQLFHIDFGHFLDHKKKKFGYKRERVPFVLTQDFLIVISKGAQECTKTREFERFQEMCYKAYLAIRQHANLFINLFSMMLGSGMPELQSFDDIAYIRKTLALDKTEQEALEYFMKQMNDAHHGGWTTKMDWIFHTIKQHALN
Phosphatidylinositol 4,5-bisphosphate 3-kinase catalytic subunit beta isoform, sequence (P42338 whole entry, canonical isoform): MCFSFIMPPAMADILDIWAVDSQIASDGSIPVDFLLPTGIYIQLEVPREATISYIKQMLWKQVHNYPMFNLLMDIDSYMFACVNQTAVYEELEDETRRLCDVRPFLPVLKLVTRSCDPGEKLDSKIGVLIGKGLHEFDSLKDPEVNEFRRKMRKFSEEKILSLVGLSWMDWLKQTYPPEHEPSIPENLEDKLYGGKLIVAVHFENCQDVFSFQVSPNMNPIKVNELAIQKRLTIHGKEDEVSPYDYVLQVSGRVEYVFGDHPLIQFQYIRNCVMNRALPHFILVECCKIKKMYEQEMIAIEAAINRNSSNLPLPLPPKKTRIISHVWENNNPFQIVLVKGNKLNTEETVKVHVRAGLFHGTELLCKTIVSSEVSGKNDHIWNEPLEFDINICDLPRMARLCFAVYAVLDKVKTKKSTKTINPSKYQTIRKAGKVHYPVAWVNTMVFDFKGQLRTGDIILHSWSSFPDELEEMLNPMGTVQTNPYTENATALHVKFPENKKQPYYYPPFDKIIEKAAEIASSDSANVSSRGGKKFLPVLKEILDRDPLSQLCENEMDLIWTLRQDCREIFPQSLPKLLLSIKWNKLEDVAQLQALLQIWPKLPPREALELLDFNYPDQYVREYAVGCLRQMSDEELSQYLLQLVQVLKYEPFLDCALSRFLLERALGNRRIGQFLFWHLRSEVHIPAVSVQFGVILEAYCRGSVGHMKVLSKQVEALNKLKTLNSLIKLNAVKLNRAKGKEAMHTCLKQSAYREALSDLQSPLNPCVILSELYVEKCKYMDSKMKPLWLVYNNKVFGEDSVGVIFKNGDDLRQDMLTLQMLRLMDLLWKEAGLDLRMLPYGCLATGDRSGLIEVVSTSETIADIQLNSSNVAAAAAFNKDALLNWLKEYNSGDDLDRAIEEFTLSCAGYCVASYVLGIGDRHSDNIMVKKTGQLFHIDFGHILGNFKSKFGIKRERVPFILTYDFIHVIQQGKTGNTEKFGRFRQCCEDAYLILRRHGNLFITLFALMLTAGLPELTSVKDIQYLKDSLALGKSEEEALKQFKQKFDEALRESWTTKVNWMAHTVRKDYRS
Phosphatidylinositol 4,5-bisphosphate 3-kinase catalytic subunit gamma isoform, sequence (P48736 whole entry, canonical isoform): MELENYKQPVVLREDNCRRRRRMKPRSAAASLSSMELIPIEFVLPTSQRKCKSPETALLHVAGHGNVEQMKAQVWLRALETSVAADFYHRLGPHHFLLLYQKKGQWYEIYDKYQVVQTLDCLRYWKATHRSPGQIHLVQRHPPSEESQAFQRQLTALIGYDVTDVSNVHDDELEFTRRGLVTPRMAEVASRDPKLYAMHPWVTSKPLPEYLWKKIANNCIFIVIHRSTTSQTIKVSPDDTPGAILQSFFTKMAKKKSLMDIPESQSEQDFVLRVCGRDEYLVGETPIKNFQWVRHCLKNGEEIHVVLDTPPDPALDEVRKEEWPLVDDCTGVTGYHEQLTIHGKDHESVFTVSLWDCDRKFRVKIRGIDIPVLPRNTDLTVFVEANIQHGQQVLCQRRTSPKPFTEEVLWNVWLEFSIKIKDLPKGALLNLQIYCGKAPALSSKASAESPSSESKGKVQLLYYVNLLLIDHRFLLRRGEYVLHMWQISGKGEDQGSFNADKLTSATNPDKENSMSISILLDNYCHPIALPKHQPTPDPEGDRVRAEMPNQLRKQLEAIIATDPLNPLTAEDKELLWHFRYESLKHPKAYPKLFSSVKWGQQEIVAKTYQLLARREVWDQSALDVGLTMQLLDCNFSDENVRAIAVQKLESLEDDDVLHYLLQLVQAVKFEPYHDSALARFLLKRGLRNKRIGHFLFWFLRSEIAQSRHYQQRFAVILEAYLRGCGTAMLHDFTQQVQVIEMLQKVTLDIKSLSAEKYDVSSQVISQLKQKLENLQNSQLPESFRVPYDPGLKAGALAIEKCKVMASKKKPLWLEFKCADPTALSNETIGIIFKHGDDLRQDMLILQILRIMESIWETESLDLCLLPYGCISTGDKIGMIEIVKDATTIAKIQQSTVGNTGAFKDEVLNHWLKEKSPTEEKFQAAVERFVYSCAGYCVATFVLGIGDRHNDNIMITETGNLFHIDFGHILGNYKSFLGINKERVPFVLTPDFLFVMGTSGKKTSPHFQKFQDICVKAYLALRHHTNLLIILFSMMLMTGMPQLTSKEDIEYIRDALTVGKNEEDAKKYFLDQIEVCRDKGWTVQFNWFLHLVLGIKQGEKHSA

Row | Compound | microsomal CLint (in vitro) [µL/min/mg] | pKi [1] | pKi [2] | pKi [3] | pIC50 [4] | pKi [5] | pIC50 [6]
1 | Cc1nc(-c2cccnc2Nc2cccc3[nH]ncc23)c2nc[nH]c2n1 | 44 | 7.92 | – | 6.46 | – | – | < 6.00
2 | Cc1nc(-c2cccnc2Nc2cccc3[nH]ccc23)c2[nH]cnc2n1 | 90 | 7.64 | 6.89 | 6.44 | 6.25 | – | –
3 | COc1ccc(Nc2ncccc2-c2nc(C)nc3nc[nH]c23)cn1 | 68 | 7.92 | 7.35 | – | – | – | < 6.00
4 | c1cnc(Nc2cccc3n[nH]cc23)c(-c2ncnc3nc[nH]c23)c1 | 115 | – | 5.01 | < 5.00 | < 5.00 | < 5.00 | –
5 | COc1ccc(Nc2ncccc2-c2ncnc3nc[nH]c23)cn1 | 109 | 5.96 | < 5.00 | 5.24 | – | 5.08 | –
6 | COc1ccc(Nc2ccccc2-c2nc(C)nc(N)n2)cn1 | 190 | 6.42 | 6.24 | 6.51 | – | 6.19 | < 6.00
7 | COc1ccc(Nc2cnccc2-c2nc(C)nc(N)n2)cn1 | 133 | 6.16 | 6.49 | 6.62 | – | 6.21 | –
8 | COc1ccc(Nc2cccnc2-c2nc(C)nc(N)n2)cn1 | 96 | 6.32 | 6.21 | 6.04 | < 5.00 | 5.89 | –
9 | COc1ccc(Nc2nccnc2-c2nc(C)nc(N)n2)cn1 | 41 | 7.05 | 6.13 | 6.52 | – | 6.28 | < 6.00

More lines, now with the values ahead:

Row | microsomal CLint (in vitro) [µL/min/mg] | pKi [1] | pKi [2] | pKi [3] | pIC50 [4] | pKi [5] | pIC50 [6] | Compound
10 | 31 | 7.00 | 7.17 | 7.52 | – | – | – | COCCNCc1cnc(Nc2ccc(OC)nc2)c(-c2nc(C)nc(N)n2)c1
11 | 67 | 8.40 | 8.05 | 8.40 | < 5.00 | 7.66 | – | COc1ccc(Nc2ncc(N3CCOCC3)cc2-c2nc(C)nc(N)n2)cn1
12 | 83 | 8.70 | 8.52 | 8.70 | – | – | – | COc1ccc(Nc2ncc(C3=CCOCC3)cc2-c2nc(C)nc(N)n2)cn1
13 | 23 | 7.68 | 8.15 | 7.80 | 5.85 | 7.41 | – | COc1ccc(Nc2ncc(N3CCN(C)CC3)cc2-c2nc(C)nc(N)n2)cn1
14 | 25 | – | 7.05 | 8.15 | – | – | – | COc1ccc(Nc2ncc(-c3ccc(C)nc3)cc2-c2nc(C)nc(N)n2)cn1
15 | 24 | 8.22 | 8.22 | 8.22 | – | – | – | COc1ccc(Nc2ncc(-c3cnn(C)c3)cc2-c2nc(C)nc(N)n2)cn1
16 | 37 | 6.85 | 7.66 | 7.30 | – | – | – | COc1ccc(Nc2ncc(CN3CCC3)cc2-c2nc(C)nc(N)n2)cn1
17 | 110 | 7.23 | 7.09 | 7.21 | – | 6.92 | < 6.00 | COc1ccc(Nc2ncncc2-c2nc(C)nc(N)n2)cn1
18 | 80 | – | 8.52 | 8.05 | – | – | < 6.00 | Cc1nc(N)nc(-c2cccnc2Nc2cccc(O)c2)n1
19 | 51 | 7.54 | 7.64 | 7.43 | – | – | < 6.00 | COc1ccc(Nc2ncccc2-c2nc(C)nc(N)n2)cn1
20 | 62 | 7.29 | 7.46 | 7.25 | 6.44 | 7.55 | < 6.00 | Cc1nc(N)cc(-c2cccnc2Nc2cccc(O)c2)n1
21 | 23 | 8.30 | 8.30 | 8.52 | – | – | – | COc1ccc(Nc2ncc(CN3CCC(S(C)(=O)=O)C3)cc2-c2nc(C)nc(N)n2)cn1 (racemic)
